Source: patent US20040010026A1, “(R) 2-(4-amidinophenylaminomethyl)-1-methyl-5-[1-(carboxymethylamino)-1 (pyrrolidinocarbonyl)-ethyl]-benzimidazole, the monohydrochloride thereof, preparation thereof and the use as pharmaceutical composition” (Boehringer Ingelheim Pharma GmbH & Co. KG, priority 2002, published 2004)
Structures can show the parent of a compound that is named as a salt.

Experiments:
[1] = Solid stress stability of the free base and of the corresponding monohydrochloride; format: physicochemical; settings: for decomposition under temperature and relative humidity stress / decomposition under temperature stress / decomposition under light stress: solid, open glass dish; for decomposition under temperature and relative humidity stress: 70° C., approx. 90% relative humidity, 3 days; for decomposition under temperature stress: 105° C., 24 hours; for decomposition under light stress: Suntester xenon lamp, 22-24 hours
Text: Solid stress stability data of the free base and of the corresponding monohydrochloride

[2] = Solubility in physiologically acceptable solvents; format: physicochemical

decomposition under temperature and relative humidity stress [1]	decomposition under temperature stress [1]	decomposition under light stress [1]	stability (general statement) [1]	solubility [2]	SMILES
approx. 4%	approx. 1%	approx. 1%			Cn1c(CNc2ccc(C(=N)N)cc2)nc2cc([C@@](C)(NCC(=O)O)C(=O)N3CCCC3)ccc21 [Free base, (R)-2-(4-Amidinophenylaminomethyl)-1-methyl-5-[1-(carboxymethylamino)-1-(pyrrolidinocarbonyl)-ethyl]-benzimidazole]
no decompo-	no decompo-	(<1%)	high degree of stability	dissolves very easily	Cn1c(CNc2ccc(C(=N)N)cc2)nc2cc([C@@](C)(NCC(=O)O)C(=O)N3CCCC3)ccc21 [monohydrochloride, (R)-2-(4-Amidinophenylaminomethyl)-1-methyl-5-[1-(carboxymethylamino)-1-(pyrrolidinocarbonyl)-ethyl]-benzimidazole-monohydrochloride]
